Source: patent publication US20120029187A1, “HALOALKYLSULFONANILIDE DERIVATIVE” (Nissan Chemical Industries, Ltd., priority 2009, published 2012)

Legend:
Assay type in all cases: in vivo
velvetleaf = experiment: Test Example 4: herbicidal effect in foliage treatment; conditions: dose 3.2 g/a, three weeks after application
Description: (§1) Test on the Herbicidal Effect in Foliage Treatment
(§2) Sterilized diluvial soil was put in plastic boxes with a length of 21 cm, a width of 13 cm and a depth of 7 cm, and seeds of barnyardgrass, large crabgrass, giant foxtail, wild oat, blackgrass, velvetleaf, common ragweed, redroot pigweed, common lambsquater, posumbu knotweed, common chickweed, corn, soybean, rice, wheat and sugar beet were sown in spots and covered with an about 1.5 cm-thick soil layer. The boxes were placed in a greenhouse at 25 to 30° C. to grow the plants. After 14 days, emulsifiable concentrates containing compounds of the present invention formulated in accordance with Formulation Example 2 were uniformly applied to the foliage at predetermined doses through a small sprayer after diluted with water. Three weeks after the application, the herbicidal effects against various plants were determined on the same evaluation scale as in Test Example 1.
(§3) A: barnyardgrass, B: bulrush, C: ducksalad, D: large crabgrass, E: giant foxtail, F: wild oat, G: water foxtail, H: Italian ryegrass, I: velvetleaf, J: common ragweed, K: redroot pigweed, L: common lambsquater, M: posumbu knotweed, N: common chickweed, O: beadstraw, a: transplanted rice, b: corn, c: soybean, d: direct-seeded rice, e: wheat, f: sugar beet.
(§4) The doses (g/a) represents the amounts in g per 1 are (a) applied after adjustment of concentration adjustment.

redroot pigweed [1] = experiment: as above; conditions: dose 3.2 g/a, three weeks after application
Description: as §1, §2, §3, §4

common ragweed [2] = experiment: as above; conditions: dose 3.2 g/a, three weeks after application
Description: as §1, §2, §3, §4

Italian ryegrass [3] = experiment: as above; conditions: dose 3.2 g/a, three weeks after application
Description: as §1, §2, §3, §4

barnyardgrass [4] = experiment: as above; conditions: dose 3.2 g/a, three weeks after application
Description: as §1, §2, §3, §4

beadstraw = experiment: as above; conditions: dose 3.2 g/a, three weeks after application
Description: as §1, §2, §3, §4

common chickweed [5] = experiment: as above; conditions: dose 3.2 g/a, three weeks after application
Description: as §1, §2, §3, §4

water foxtail [6] = experiment: as above; conditions: dose 3.2 g/a, three weeks after application
Description: as §1, §2, §3, §4

giant foxtail [7] = experiment: as above; conditions: dose 3.2 g/a, three weeks after application
Description: as §1, §2, §3, §4

posumbu knotweed [8] = experiment: as above; conditions: dose 3.2 g/a, three weeks after application
Description: as §1, §2, §3, §4

common lambsquater [9] = experiment: as above; conditions: dose 3.2 g/a, three weeks after application
Description: as §1, §2, §3, §4

large crabgrass [10] = experiment: as above; conditions: dose 3.2 g/a, three weeks after application
Description: as §1, §2, §3, §4

ducksalad [11] = experiment: Test Example 2: herbicidal effects during the vegetation period under submerged conditions; conditions: treatment during the vegetation period under submerged conditions; dose 2.52 g/a
Description: (§5) Test on the Herbicidal Effects on Weeds During the Vegetation Period Under Submerged Conditions
(§6) Alluvial soil was put in 1/30000-are styrol cups and admixed with water so that it was submerged at a depth of 4 cm. In each cup, seeds of barnyardgrass, bulrush and ducksalad were sown together, and the cups were placed in a greenhouse at 25 to 30° C. to grow the plants. When the barnyardgrass, bulrush and ducksalad reached the 1- or 2-leaf stage, emulsifiable concentrates containing compounds of the present invention formulated in accordance with Formulation Example 2 were applied to the water surfaces at predetermined doses after diluted with water. Three weeks after the application, the herbicidal effects against various plants were determined on the same evaluation scale as in Test Example 1.
as §3, §4

bulrush [12] = experiment: as above; conditions: treatment during the vegetation period under submerged conditions; dose 2.52 g/a
Description: as §5, §6, §3, §4

barnyardgrass [13] = experiment: as above; conditions: treatment during the vegetation period under submerged conditions; dose 2.52 g/a
Description: as §5, §6, §3, §4

transplanted rice = experiment: Test Example 1: preemergence treatment under submerged conditions, effect on crop; conditions: dose 2.52 g/a
Description: (§7) Test on the Herbicidal Effects in Preemergence Treatment on Weeds Under Submerged Conditions
(§8) Alluvial soil was put in 1/30000-are styrol cups and admixed with water so that it was submerged at a depth of 4 cm. In each cup, seeds of barnyardgrass, bulrush and ducksalad were sown together, and rice seedlings at the 2.5-leaf stage were transplanted. On the same day as the seeding, emulsifiable concentrates containing compounds of the present invention formulated in accordance with Formulation Example 2 were applied to the water surfaces at predetermined doses after diluted with water. The cups were placed in a greenhouse at 25 to 30° C. to grow the plants. Three weeks after the application, the herbicidal effects against various plants were determined on the following evaluation scale.
(§9) 5 mortality of 90% or above (nearly complete death)
(§10) 4 mortality of at least 70% and less than 90%
(§11) 3 mortality of at least 40% and less than 70%
(§12) 2 mortality of at least 20% and less than 40%
(§13) 1 mortality of at least 5% and less than 20%
(§14) 0 mortality of less than 5% (almost ineffective)
as §3, §4

ducksalad [14] = experiment: Test Example 1: herbicidal effects in preemergence treatment under submerged conditions; conditions: dose 2.52 g/a
Description: as §7, §8, §9, §10, §11, §12, §13, §14, §3, §4

bulrush [15] = experiment: as above; conditions: dose 2.52 g/a
Description: as §7, §8, §9, §10, §11, §12, §13, §14, §3, §4

barnyardgrass [16] = experiment: as above; conditions: dose 2.52 g/a
Description: as §7, §8, §9, §10, §11, §12, §13, §14, §3, §4

redroot pigweed [17] = experiment: Test Example 3: herbicidal effects in soil treatment; conditions: dose 3.2 g/a
Description: (§15) Test on the Herbicidal Effects in Soil Treatment
as §2, with “chickweed” for “chickweed,”, “Emulsifiable” for “The boxes were placed in a greenhouse at 25 to 30° C. to grow the plants. After 14 days, emulsifiable”, “soil surfaces” for “foliage”, “dilute” for “diluted”
as §3, §4

common ragweed [18] = experiment: as above; conditions: dose 3.2 g/a
Description: as §15
as §2, with “chickweed” for “chickweed,”, “Emulsifiable” for “The boxes were placed in a greenhouse at 25 to 30° C. to grow the plants. After 14 days, emulsifiable”, “soil surfaces” for “foliage”, “dilute” for “diluted”
as §3, §4

Italian ryegrass [19] = experiment: as above; conditions: dose 3.2 g/a
Description: as §15
as §2, with “chickweed” for “chickweed,”, “Emulsifiable” for “The boxes were placed in a greenhouse at 25 to 30° C. to grow the plants. After 14 days, emulsifiable”, “soil surfaces” for “foliage”, “dilute” for “diluted”
as §3, §4

barnyardgrass [20] = experiment: as above; conditions: dose 3.2 g/a
Description: as §15
as §2, with “chickweed” for “chickweed,”, “Emulsifiable” for “The boxes were placed in a greenhouse at 25 to 30° C. to grow the plants. After 14 days, emulsifiable”, “soil surfaces” for “foliage”, “dilute” for “diluted”
as §3, §4

common chickweed [21] = experiment: as above; conditions: dose 3.2 g/a
Description: as §15
as §2, with “chickweed” for “chickweed,”, “Emulsifiable” for “The boxes were placed in a greenhouse at 25 to 30° C. to grow the plants. After 14 days, emulsifiable”, “soil surfaces” for “foliage”, “dilute” for “diluted”
as §3, §4

water foxtail [22] = experiment: as above; conditions: dose 3.2 g/a
Description: as §15
as §2, with “chickweed” for “chickweed,”, “Emulsifiable” for “The boxes were placed in a greenhouse at 25 to 30° C. to grow the plants. After 14 days, emulsifiable”, “soil surfaces” for “foliage”, “dilute” for “diluted”
as §3, §4

giant foxtail [23] = experiment: as above; conditions: dose 3.2 g/a
Description: as §15
as §2, with “chickweed” for “chickweed,”, “Emulsifiable” for “The boxes were placed in a greenhouse at 25 to 30° C. to grow the plants. After 14 days, emulsifiable”, “soil surfaces” for “foliage”, “dilute” for “diluted”
as §3, §4

posumbu knotweed [24] = experiment: as above; conditions: dose 3.2 g/a
Description: as §15
as §2, with “chickweed” for “chickweed,”, “Emulsifiable” for “The boxes were placed in a greenhouse at 25 to 30° C. to grow the plants. After 14 days, emulsifiable”, “soil surfaces” for “foliage”, “dilute” for “diluted”
as §3, §4

common lambsquater [25] = experiment: as above; conditions: dose 3.2 g/a
Description: as §15
as §2, with “chickweed” for “chickweed,”, “Emulsifiable” for “The boxes were placed in a greenhouse at 25 to 30° C. to grow the plants. After 14 days, emulsifiable”, “soil surfaces” for “foliage”, “dilute” for “diluted”
as §3, §4

large crabgrass [26] = experiment: as above; conditions: dose 3.2 g/a
Description: as §15
as §2, with “chickweed” for “chickweed,”, “Emulsifiable” for “The boxes were placed in a greenhouse at 25 to 30° C. to grow the plants. After 14 days, emulsifiable”, “soil surfaces” for “foliage”, “dilute” for “diluted”
as §3, §4

What does the source list for `CC1(C(F)(F)F)CC(=O)N(Cc2ccccc2N(C(=O)C2CC2)S(=O)(=O)C(F)(F)F)CO1` (centres unmarked) [II-48]?
I: velvetleaf, herbicidal effect (velvetleaf): 4 (mortality of at least 70% and less than 90%); K: redroot pigweed, herbicidal effect (redroot pigweed [1]): 0 (mortality of less than 5% (almost ineffective)); J: common ragweed, herbicidal effect (common ragweed [2]): 2 (mortality of at least 20% and less than 40%); H: Italian ryegrass, herbicidal effect (Italian ryegrass [3]): 0 (mortality of less than 5% (almost ineffective)); A: barnyardgrass, herbicidal effect (barnyardgrass [4]): 4 (mortality of at least 70% and less than 90%); O: beadstraw, herbicidal effect (beadstraw): 4 (mortality of at least 70% and less than 90%); N: common chickweed, herbicidal effect (common chickweed [5]): 3 (mortality of at least 40% and less than 70%); G: water foxtail, herbicidal effect (water foxtail [6]): 2 (mortality of at least 20% and less than 40%); E: giant foxtail, herbicidal effect (giant foxtail [7]): 2 (mortality of at least 20% and less than 40%); M: posumbu knotweed, herbicidal effect (posumbu knotweed [8]): 2 (mortality of at least 20% and less than 40%); L: common lambsquater, herbicidal effect (common lambsquater [9]): 0 (mortality of less than 5% (almost ineffective)); D: large crabgrass, herbicidal effect (large crabgrass [10]): 1 (mortality of at least 5% and less than 20%); C: ducksalad, herbicidal effect (evaluation scale 0-5) (ducksalad [11]): 5 (mortality of 90% or above (nearly complete death)); B: bulrush, herbicidal effect (evaluation scale 0-5) (bulrush [12]): 5 (mortality of 90% or above (nearly complete death)); A: barnyardgrass, herbicidal effect (evaluation scale 0-5) (barnyardgrass [13]): 5 (mortality of 90% or above (nearly complete death)); a: transplanted rice, effect on crop (evaluation scale 0-5) (transplanted rice): 0 (mortality of less than 5% (almost ineffective)); C: ducksalad, herbicidal effect (evaluation scale 0-5) (ducksalad [14]): 5 (mortality of 90% or above (nearly complete death)); B: bulrush, herbicidal effect (evaluation scale 0-5) (bulrush [15]): 5 (mortality of 90% or above (nearly complete death)); A: barnyardgrass, herbicidal effect (evaluation scale 0-5) (barnyardgrass [16]): 5 (mortality of 90% or above (nearly complete death)); K: redroot pigweed, herbicidal effect (evaluation scale 0-5) (redroot pigweed [17]): 0 (mortality of less than 5% (almost ineffective)); J: common ragweed, herbicidal effect (evaluation scale 0-5) (common ragweed [18]): 4 (mortality of at least 70% and less than 90%); H: Italian ryegrass, herbicidal effect (evaluation scale 0-5) (Italian ryegrass [19]): 0 (mortality of less than 5% (almost ineffective)); A: barnyardgrass, herbicidal effect (evaluation scale 0-5) (barnyardgrass [20]): 5 (mortality of 90% or above (nearly complete death)); N: common chickweed, herbicidal effect (evaluation scale 0-5) (common chickweed [21]): 4 (mortality of at least 70% and less than 90%); G: water foxtail, herbicidal effect (evaluation scale 0-5) (water foxtail [22]): 5 (mortality of 90% or above (nearly complete death)); E: giant foxtail, herbicidal effect (evaluation scale 0-5) (giant foxtail [23]): 4 (mortality of at least 70% and less than 90%); M: posumbu knotweed, herbicidal effect (evaluation scale 0-5) (posumbu knotweed [24]): 3 (mortality of at least 40% and less than 70%); L: common lambsquater, herbicidal effect (evaluation scale 0-5) (common lambsquater [25]): 0 (mortality of less than 5% (almost ineffective)); D: large crabgrass, herbicidal effect (evaluation scale 0-5) (large crabgrass [26]): 5 (mortality of 90% or above (nearly complete death))
